Experiments:
[1] = test system: rats subjected to ischemic/reperfusion injury by middle cerebral artery (MCA) occlusion; assay: Transmission electron microscopy of brain tissue, ischemic penumbra, after MCA occlusion (Example 3); format: in vivo, Sprague-Dawley rats; settings: for number of vessels per field (patent microvessels): 120 min MCA occlusion, 4 hrs reperfusion, 0.2 mg/kg bolus intraperitoneal at onset of reperfusion, 1200x fields, n=4, FIG. 5
Protocol: Sprague-Dawley rats underwent 120 minutes MCA occlusion, followed by 4 hrs of reperfusion. Rats were treated with either TAT or δV1-1-TAT peptides at the onset of reperfusion by bolus intraperitoneal injection (0.2 mg/kg in 1 mL, n=4 per group). […] Following the reperfusion period, rats were heavily anesthetized using isoflurane, and underwent transcardial perfusion using 0.7% NaCl/PBS followed by 4% formaldehyde in 0.7% NaCl/PBS.
Brains were removed and kept at 4° C. overnight in 2% formaldehyde/2% glutaraldehyde in 0.1M sodium cacodylate buffer, pH 7.3, Brain sections (˜1 mm^3) were then dissected from the cortical surface, at ˜1 mm anterior/˜6 mm lateral to bregma on the ipsilateral cortex (corresponding to the area measured by laser Doppler flowmetry). Tissue was post-fixed in 1% osmium tetroxide for 1 hr, washed with water, and stained in 1% uranyl acetate solution. Tissue was dehydrated using an ethanol gradient followed by 100% propylene oxide, and infiltrated with Epon and Embed 812 medium, placed in molds, and polymerized overnight at 65° C. before slicing. Sections (75 and 90 nm) were picked up on formvar/Carbon coated Cu grids, stained for 15 seconds in 1:1 Super-saturated uranyl acetate (7.7%) in acetone followed by staining in 0.2% lead citrate for 3 to 4 minutes (all reagents from Electron Microscopy Sciences, PA).
To quantitate number of patent vessels, 10-15 non-overlapping fields (1200× magnification) were photographed from 2-3 slices taken from each animal. Vessels were identified and counted if lumen and endothelial lining was apparent; vessels were confirmed by scanning over these fields at higher magnification. Assessments of vessel count were performed by an observer blinded to treatment group. The number of vessels per field was then averaged for each group of animals (n=4 per group). Statistical differences between groups were analyzed using an unpaired t-test. Higher magnification images (5000-15000×) were taken to assess microvascular morphology.

[2] = test system: rats subjected to ischemic/reperfusion injury; assay: Cerebral blood flow after repeated intraperitoneal administrations (Example 2); format: in vivo
Description: (§1) Ischemia and reperfusion were induced in male Sprague-Dawley rats using an occluding intraluminal suture as described in Maier, et al., J. Neurosurg. 94(1):90-96 (2001). Briefly, an uncoated 30 mm long segment of 3-0 nylon monofilament suture with the tip rounded by a flame was inserted into the stump of the external carotid artery and advanced into the internal carotid artery 19-20 mm from the bifurcation to occlude the ostium of the middle cerebral artery (MCA). Following placement of the suture, the wound was closed and animals were placed back in cages for a period of two hours. Following this period, animals were reanestheized and the suture was withdrawn to allow reperfusion of the brain.
Immediately following reperfusion, the rats were placed in a stereotaxic frame, and a burr hole was drilled through the skull 1 mm posterior and 6 mm lateral to the bregma on the ipsilateral hemisphere corresponding to the ischemic territory. Cerebral blood flow (CBF) was measured via this burr hole using a laser Doppler probe controlled by a micromanipulator (Laserflo BPM403A laser-Doppler flowmeter, Vasamedic, St. Paul, Minn.). The display is digital only, collects eight data points per second, and was set to give a moving average of data every 0.1 sec. […] CBF readings began at 30 minutes from the onset of reperfusion. […]

[3] = test system: rats subjected to ischemic/reperfusion injury by middle cerebral artery (MCA) occlusion; assay: Cerebral blood flow by laser Doppler flowmetry after single intraperitoneal bolus (Example 1); format: in vivo, Sprague-Dawley rats; settings: bolus intraperitoneal delivery
Description: Male Sprague-Dawley rats (280-320g; n=8) were used for cerebral ischemia and reperfusion, and subsequent monitoring of cerebral blood flow. Tat or δV1-1 peptides were synthesized and conjugated via a Cys S—S bond as described previously (Chen, et al., Proc. Natl. Acad. Sci. USA 25(20):11114-11119 (2001); Inagaki, et al., Circulation 11(108):2304-2307 (2003)). Rats were sacrificed by overdose of isoflurane immediately following procedure
as §1
Immediately following reperfusion, the rats were placed in a stereotaxic frame, and a burr hole was drilled through the skull 1 mm posterior and 6 mm lateral to the bregma on the ipsilateral hemisphere corresponding to the ischemic territory. Cerebral blood flow (CBF) was measured via this burr hole using a laser Doppler probe controlled by a micromanipulator (Laserflo BPM403A laser-Doppler flowmeter, Vasamedic, St. Paul, Minn.). The display is digital only, collects eight data points per second, and was set to give a moving average of data every 0.1 sec. (Perez-Pinzon, et al., J. Neurolog. Sci. 153 (1):25-31 (1997); Borlongan, et al., Brain Res. 1010(1-2):108-116 (2004)). CBF readings began at 30 minutes from the onset of reperfusion. Following a period of 20-30 minutes to establish baseline CBF, a δPKC inhibitor, the δV1-1 peptide (which was conjugated to Tat for delivery), was injected by intraperitoneal bolus, and blood flow was monitored for an additional 20-30 minutes.

[4] = rats subjected to ischemic/reperfusion injury (2 h MCA occlusion), within 30 minutes, FIG. 2
[5] = sham (non-stroked) rats, within 30 minutes of delivery, FIG. 1

Sequence | number of vessels per field (patent microvessels) [1] [vessels/field] | microvascular structure (higher magnification TEM) ([1]; ischemic animals, 0.2 mg/kg at reperfusion only, FIGS. 4F, 4I, 4L) | desensitization to the inhibitor ([2]; ischemic/reperfusion rats treated multiple times) | cerebral blood flow (CBF) ([2]; ischemic/reperfusion rats, repeated intraperitoneal administrations, FIG. 3) | cerebral blood flow (CBF) [3, 4] | cerebral blood flow (CBF) [3, 5]
SFNSYELGSL [δV1-1-TAT] | 3.1±0.6 | significantly less damaged | did not become desensitized | further increased blood flow | increased cerebral blood flow | no change in blood flow
YGRKKRRQRRR [TAT, reference compound] | 1.6±0.6 | – | – | – | no effect on CBF | no effect on CBF

— patent US8492348B2, “Methods of increasing cerebral blood flow” (The Board of Trustees of the Leland Stanford Junior …, priority 2005, dated 2013)
